Measurements: ChEMBL document CHEMBL4651402, “Screening of ~5500 FDA-approved drugs and clinical candidates for anti-SARS-CoV-2 activity” (2021)

System: SARS-CoV-2
Assay: microbe, parasite or virus in culture
Details: Severe acute respiratory syndrome coronavirus 2, Vero C1008, 48 h

Row | Compound | IC50 | IC50 (read-out: pIC50 (converted))
1 | CN1C2CCC1CC(OC(c1ccccc1)c1ccccc1)C2 (configuration not stated) | > 20 µM | > 20 µM
2 | C[N+]1(C)[C@@H]2CC[C@@H]1CC(OC(=O)C(CO)c1ccccc1)C2 (some centres not stated) | > 20 µM | > 20 µM
3 | CCCCCCCCCCCCOS(=O)(=O)O | > 20 µM | > 20 µM
4 | CN(C)CC(=O)O | > 20 µM | > 20 µM
5 | COc1ccc(N2CCN(c3cccc(C)c3)CC2)nn1 | > 20 µM | > 20 µM
6 | O=c1c(-c2ccc(O)cc2)coc2c(C3O[C@H](CO)[C@@H](O)[C@H](O)[C@H]3O)c(O)ccc12 (some centres not stated) | > 20 µM | > 20 µM
7 | CC(C)c1ccc2c(c1)CCC1C(C)(C(N)=O)CCCC21C (configuration not stated) | > 20 µM | > 20 µM
8 | CCc1ccc(OCc2ccccc2C(=O)Nc2ccc3nc(C)cc(N)c3c2)cc1 | > 20 µM | > 20 µM
9 | CC[C@]1(c2ccccc2)NC(=O)N(C)C1=O | > 20 µM | > 20 µM
10 | CCCc1nc(C)c2c(=O)nc(-c3cc(S(=O)(=O)N4CCN(CC)CC4)ccc3OCC)[nH]n12 | > 20 µM | > 20 µM
11 | CN(C)CCN(Cc1ccccc1)c1ccccc1 | > 20 µM | > 20 µM
12 | CC12C=CC(=O)C=C1CCC1C2C(=O)CC2(C)C1CC[C@]2(O)C(=O)CO (some centres not stated) | > 20 µM | > 20 µM
13 | CCOC(=O)[C@H](CCc1ccccc1)N[C@@H](C)C(=O)N1Cc2ccccc2C[C@H]1C(=O)O | > 20 µM | > 20 µM
14 | NC(C(=O)O)C(O)c1ccc(O)c(O)c1 (configuration not stated) | > 20 µM | > 20 µM
15 | CCC12CCCN3CCc4c(n(c5ccccc45)C(O)(C(=O)OC)C1)C32 (configuration not stated) | > 20 µM | > 20 µM
16 | CCN1CCN(C(=O)NC(C(=O)NC2C(=O)N3C2SC(C)(C)C3C(=O)O)c2ccccc2)C(=O)C1=O (configuration not stated) | > 20 µM | > 20 µM
17 | COC(=O)C(N)Cc1ccc(O)c(O)c1 (configuration not stated) | > 20 µM | > 20 µM
18 | CC(C)C[C@H]1C(=O)N2CCC[C@H]2[C@]2(O)O[C@](NC(=O)[C@@H]3C=C4c5cccc6[nH]c(Br)c(c56)CC4N(C)C3)(C(C)C)C(=O)N12 (some centres not stated) | > 20 µM | > 20 µM
19 | COP(=O)(c1cc(C)cc(/C=C/C#N)c1)c1c(C(N)=O)[nH]c2ccc(Cl)cc12 (configuration not stated) | > 20 µM | > 20 µM
20 | CC(=O)C1(O)CCC2C3CC(C)C4=CC(=O)C=CC4(C)C3(F)C(O)CC21C (configuration not stated) | > 20 µM | > 20 µM
21 | CC(C)CCCCCCCCCCCCCCC(=O)O | > 20 µM | > 20 µM

Row | Compound | IC50 | IC50 (read-out: pIC50 (converted))
22 | COc1ccc(Cl)cc1NC(=O)Cc1ccc(S(=O)(=O)Nc2ncc(CC(C)C)cn2)cc1 | > 20 µM | > 20 µM
23 | CC1C(=O)OC2CCN3CC=C(COC(=O)C(C)(O)C1(C)O)C23 (configuration not stated) | > 20 µM | > 20 µM
24 | NC(=O)c1csc(C2OC(CO)C(O)C2O)n1 (configuration not stated) | > 20 µM | > 20 µM
25 | O=c1[nH]c(=O)n(C2CC(O)C(CO)O2)cc1Br (configuration not stated) | > 20 µM | > 20 µM
26 | NCC1CCC(C(=O)O)CC1 (configuration not stated) | > 20 µM | > 20 µM
27 | Cc1ncc[nH]1 | > 20 µM | > 20 µM
28 | O=C1CCCC2C3CC(CN12)[C@@H]1CCCCN1C3 (some centres not stated) | > 20 µM | > 20 µM
29 | O=C1CC(c2ccc(O)c(O)c2)Oc2cc(O)cc(O)c21 (configuration not stated) | > 20 µM | > 20 µM
30 | CC12CCC3C4CCC(=O)C=C4CCC3C1CCC2=O (configuration not stated) | > 20 µM | > 20 µM
31 | CC(=O)C1CCC2C3CCC4=CC(=O)CCC4C3CCC12C (configuration not stated) | > 20 µM | > 20 µM
32 | CC[N+](C)(CC)CCC[n+]1c(-c2ccccc2)c2cc(N)ccc2c2ccc(N)cc21 | > 20 µM | > 20 µM
33 | COc1ccc2[nH]c3c(c2c1)CCN=C3C | > 20 µM | > 20 µM
34 | Cc1c(NC(=O)C(C)N(C)C)c(=O)n(-c2ccccc2)n1C (configuration not stated) | > 20 µM | > 20 µM
35 | O[C@H](CNC[C@@H](O)[C@H]1CCc2cc(F)ccc2O1)[C@@H]1CCc2cc(F)ccc2O1 | > 20 µM | > 20 µM
36 | COc1cc2c(c(OC)c1OC)-c1ccc(O)c(=O)cc1C(N)CC2 (configuration not stated) | > 20 µM | > 20 µM
37 | CCOc1ccccc1O[C@H](c1ccccc1)[C@H]1CNCCO1 | > 20 µM | > 20 µM
38 | COC(=O)C(N)CCCNC(=N)N[N+](=O)[O-] (configuration not stated) | > 20 µM | > 20 µM
39 | CN(Cc1cnc2nc(N)nc(N)c2n1)c1ccc(C(=O)NC(CCC(=O)O)C(=O)O)cc1 (configuration not stated) | > 20 µM | > 20 µM
40 | C[C@@H]1NC(=O)NC1=O | > 20 µM | > 20 µM
41 | O=C(O)CC(S)C(=O)O (configuration not stated) | > 20 µM | > 20 µM
